This passage reports TGI results from PubChem BioAssay (NCI).

Among the test systems are MOLT-4 leukemia; NCI-H23 lung; NCI/ADR-RES ovarian; OVCAR-8 ovarian; ACHN renal; TK-10 renal; 786-0 renal; NCI-H522 lung; SF-295 CNS; OVCAR-5 ovarian; MDA-MB-435; T-47D breast.
Holding throughout (assay): NCI-60 cell line screen, 48 h

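Interpolation was linear, between the two tested concentrations surrounding the appropriate level; five concentrations were tested over 48 hours in 96-well plates. The concentration for full growth arrest is given as TGI.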 Where only a bound is given, the exact number is not on record here.

For the compound `NC(=O)NC(=O)c1cccc(CNc2ccc(C(=O)N[C@@H](CCC(=O)O)C(=O)O)cc2)n1`, the TGI with MOLT-4 leukemia, with NCI-H23 lung, in the test with NCI/ADR-RES ovarian, in the test on OVCAR-8 ovarian, in the test on ACHN renal and in the test with TK-10 renal was > 100 µM throughout. Besides, the TGI in the test on 786-0 renal, with NCI-H522 lung, in the test on SF-295 CNS, in the test with OVCAR-5 ovarian and in the test with MDA-MB-435 was > 100 µM throughout.
As to `CCOC(=O)c1nc2ccccc2nc1Nc1ccc(OC)c(OC)c1`, the TGI in the test with T-47D breast, in the test with MOLT-4 leukemia, in the test on NCI-H23 lung, in the test on NCI/ADR-RES ovarian, in the test on ACHN renal and with 786-0 renal was > 100 µM throughout. The TGI with NCI-H522 lung, in the test with SF-295 CNS, in the test with OVCAR-5 ovarian and with MDA-MB-435 was > 100 µM throughout.
`COc1cc(NC(C)=O)ccc1C(=O)NN1C(=O)C(Cl)C1c1ccco1` (stereo not drawn): the TGI with T-47D breast, in the test on MOLT-4 leukemia, in the test with NCI-H23 lung, in the test on NCI/ADR-RES ovarian, in the test with OVCAR-8 ovarian and in the test with ACHN renal was > 100 µM each time. In addition, the TGI in the test with 786-0 renal, with NCI-H522 lung, in the test on OVCAR-5 ovarian and with MDA-MB-435 was > 100 µM each time.
For `C=C1C(=O)OC2/C=C(/C)C3CC(O)C(C)(CC(OC(=O)/C(C)=C/C)C12)O3` (stereo not drawn), the TGI in the test on MOLT-4 leukemia was > 26.8 µM; in the test with NCI-H23 lung, 16.9 µM; in the test on OVCAR-8 ovarian it was 3.99 µM; in the test with ACHN renal, 6.71 µM; in the test with TK-10 renal it was 20.1 µM; in the test with 786-0 renal, 11.5 µM. The TGI is 6.12 µM with NCI-H522 lung, > 54 µM with SF-295 CNS and 21.6 µM in the test with OVCAR-5 ovarian.
In the case of `CCOC(=O)c1c(C)cc(=O)n2c1[nH]c1ccccc12`, the TGI with T-47D breast, in the test with MOLT-4 leukemia, in the test on NCI-H23 lung, with NCI/ADR-RES ovarian, with OVCAR-8 ovarian and in the test on ACHN renal was > 100 µM throughout. Besides, the TGI in the test with TK-10 renal, with 786-0 renal, in the test on SF-295 CNS and in the test on OVCAR-5 ovarian was > 100 µM each time.
As for `Cn1c(-c2cccs2)cc(-c2cccs2)c1-c1ccco1`, the TGI in the test on T-47D breast was 12 µM; with MOLT-4 leukemia, > 100 µM; with NCI-H23 lung it was > 25 µM; in the test on NCI/ADR-RES ovarian it was > 100 µM; with OVCAR-8 ovarian, > 100 µM; in the test on ACHN renal, > 100 µM. Besides, the TGI was > 100 µM in the test with TK-10 renal; > 100 µM in the test with 786-0 renal; 88.2 µM with NCI-H522 lung; > 100 µM with SF-295 CNS; > 100 µM in the test with OVCAR-5 ovarian.
Take `O=C(O)CS`: the TGI in the test on MOLT-4 leukemia, with NCI-H23 lung, in the test with TK-10 renal, in the test on 786-0 renal, in the test on NCI-H522 lung and in the test with SF-295 CNS was > 100 µM throughout. The TGI in the test with OVCAR-5 ovarian was > 100 µM.
With `COP(=O)(Cc1ccccc1)Cc1ccccc1`, the TGI in the test on T-47D breast, in the test with MOLT-4 leukemia, in the test with NCI-H23 lung, in the test with NCI/ADR-RES ovarian, in the test with OVCAR-8 ovarian and with ACHN renal was > 100 µM in each case. The TGI in the test with TK-10 renal, in the test with 786-0 renal, in the test with NCI-H522 lung, with SF-295 CNS and with OVCAR-5 ovarian was > 100 µM each time.
Take `O=C(NNC(c1ccccc1)C(F)(F)F)c1ccncc1` (stereo not drawn): the TGI in the test on MOLT-4 leukemia, in the test on NCI-H23 lung, in the test with NCI/ADR-RES ovarian, in the test with OVCAR-8 ovarian, with ACHN renal and in the test with TK-10 renal was > 100 µM throughout. Moreover, the TGI in the test on 786-0 renal, with NCI-H522 lung, with SF-295 CNS, in the test on OVCAR-5 ovarian and in the test with MDA-MB-435 was > 100 µM in each case.
As for `CC(C)CCC[C@@H](C)C1CCC2[C@@H]3CC=C4C[C@@H](C(=O)NCC[N+](C)(C)CCCS(=O)(=O)[O-])CC[C@]4(C)C3CC[C@@]21C` (stereo partly drawn), the TGI with MOLT-4 leukemia was 35.1 µM; in the test on OVCAR-8 ovarian it was 35 µM; with ACHN renal, 32.5 µM; in the test with 786-0 renal it was 31.1 µM; with NCI-H522 lung, 23.6 µM; in the test with SF-295 CNS, 35 µM.
Take `Cc1nc(C(N)=S)sc1C(/C=C/c1ccc(Cl)c(Cl)c1)=N/NC(C)(C)C`: the TGI in the test with MOLT-4 leukemia is 80.5 µM; in the test with NCI-H23 lung it was > 100 µM; with NCI/ADR-RES ovarian, > 100 µM; in the test with OVCAR-8 ovarian it was > 100 µM; in the test with ACHN renal, > 100 µM; in the test on TK-10 renal, > 100 µM. The TGI with 786-0 renal, with NCI-H522 lung, with SF-295 CNS and in the test with MDA-MB-435 was > 100 µM each time.
As to `c1ccc(C2=NOC3(c4ccccc4)SC4CCCCC4CN23)cc1` (stereo not drawn), the TGI in the test with MOLT-4 leukemia was 51.3 µM; in the test on NCI-H23 lung, > 100 µM; with ACHN renal, 70.9 µM; with TK-10 renal, > 100 µM; in the test on 786-0 renal, > 100 µM; in the test with NCI-H522 lung, 22.6 µM. The TGI in the test with SF-295 CNS and in the test with OVCAR-5 ovarian was > 100 µM throughout.
For the compound `COc1cc(C)cc2c1c(=O)c1ccccc1n2C`, the TGI in the test with MOLT-4 leukemia, in the test with NCI-H23 lung, in the test on NCI/ADR-RES ovarian, in the test with OVCAR-8 ovarian, with ACHN renal and with TK-10 renal was > 100 µM each time. Moreover, the TGI was > 100 µM in the test with 786-0 renal; > 100 µM with NCI-H522 lung; 45.3 µM with SF-295 CNS; > 100 µM in the test with OVCAR-5 ovarian; > 100 µM in the test on MDA-MB-435.
Consider `CC(C)(C)NC(=O)NC12CC3CC(CC(F)(C3)C1)C2`, for which the TGI in the test on MOLT-4 leukemia, in the test with NCI-H23 lung, with OVCAR-8 ovarian, in the test with ACHN renal, with TK-10 renal and in the test with 786-0 renal was > 100 µM in each case. In addition, the TGI in the test with NCI-H522 lung and in the test on OVCAR-5 ovarian was > 100 µM in each case.
